Results on 21 compounds are retold here after patent US10227346B2, “Methyl- and trifluoromethyl-substituted pyrrolopyridine modulators of RORC2 and methods of use therof” (Pfizer Inc., priority 2014, dated 2019).

Usually IC50 stands for the concentration needed to halve the response being measured. A lower IC50 goes with higher potency.

The subject of this experiment is IL-17 production from human Th17 cells. As to the kind of experiment: IL-17 production from human Th17 cells.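 Note: purified human CD4+ T cells activated with anti-CD3 plus anti-CD28 and a Th17-inducing cytokine cocktail, with compound at serial concentrations versus no compound.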 In kind it is cell-based. To be noted: IL-17A in supernatant by ELISA after 6 days, human CD4+ T cells under Th17 differentiation.
In the case of `COc1cc(Cl)cc(C(=O)Nc2cnc3c(c(C4CCN(C(=O)C(C)C)CC4)cn3C)c2C(F)(F)F)c1` [Example 13, 3-chloro-N-(3-(1-isobutyrylpiperidin-4-yl)-1-methyl-4-(trifluoromethyl)-1H-pyrrolo[2,3-b]pyridin-5-yl)-5-methoxybenzamide], half-maximal inhibition (IC50) was put at 48.7 nM.
The same measure for `Cn1cc(C2CCN(C(=O)[C@H]3CCCS3)CC2)c2c(C(F)(F)F)c(NC(=O)c3cccc(C#N)c3)cnc21` (single isomer, unassigned) [Example 28]: 118 nM; for `CC(C)C(=O)N1CCC(c2cn(C)c3ncc(NC(=O)c4ccc(F)c(C#N)c4)c(C(F)(F)F)c23)CC1` [Example 9, 3-cyano-4-fluoro-N-(3-(1-isobutyrylpiperidin-4-yl)-1-methyl-4-(trifluoromethyl)-1H-pyrrolo[2,3-b]pyridin-5-yl)benzamide]: 27.5 nM; for `Cn1cc([C@@H]2CCN(C(=O)C3CCCC3)C(C)(C)C2)c2c(C(F)(F)F)c(NC(=O)c3cccc(C#N)c3)cnc21` [Example 65, (R)-3-cyano-N-(3-(1-(cyclopentanecarbonyl)-2,2-dimethylpiperidin-4-yl)-1-methyl-4-(trifluoromethyl)-1H-pyrrolo[2,3-b]pyridin-5-yl)benzamide]: 10.7 nM.
In the case of `Cc1c(NC(=O)c2cccc(C#N)c2)cnc2c1c([C@@H]1CCN(C(=O)CC3CCCCC3)C(C)(C)C1)cn2C` [Example 75, (R)-3-cyano-N-(3-(1-(2-cyclohexylacetyl)-2,2-dimethylpiperidin-4-yl)-1,4-dimethyl-1H-pyrrolo[2,3-b]pyridin-5-yl)benzamide] it was 6.8 nM; in that of `CC(C(=O)N1CCC(c2cn(C)c3ncc(NC(=O)c4cccc(C#N)c4)c(C(F)(F)F)c23)CC1)C1CC1` (racemic) [Example 25, Rac-3-cyano-N-(3-(1-(2-cyclopropylpropanoyl)piperidin-4-yl)-1-methyl-4-(trifluoromethyl)-1H-pyrrolo[2,3-b]pyridin-5-yl)benzamide], 14.1 nM.
In the case of `COc1ccc(C(=O)Nc2cnc3c(c(C4CCN(C(=O)C(C)C)CC4)cn3C)c2C(F)(F)F)cc1Cl` [Example 10, 3-chloro-N-(3-(1-isobutyrylpiperidin-4-yl)-1-methyl-4-(trifluoromethyl)-1H-pyrrolo[2,3-b]pyridin-5-yl)-4-methoxybenzamide] it was 51.3 nM; in that of `Cc1c(NC(=O)c2cc(Cl)ccc2F)cnc2c1c(C1CCN(C(=O)[C@H](C)C(C)(C)C)CC1)cn2C` [Example 41, (R)-5-chloro-N-(1,4-dimethyl-3-(1-(2,3,3-trimethylbutanoyl)piperidin-4-yl)-1H-pyrrolo[2,3-b]pyridin-5-yl)-2-fluorobenzamide], 18.9 nM; in that of `Cc1c(NC(=O)c2cccc(C#N)c2)cnc2c1c(C1CCN(C(=O)c3cccc4c3CCC4)CC1)cn2C` [Example 34, 3-cyano-N-(3-(1-(2,3-dihydro-1H-indene-4-carbonyl)piperidin-4-yl)-1,4-dimethyl-1H-pyrrolo[2,3-b]pyridin-5-yl)benzamide], 9.5 nM.
For `Cc1c(NC(=O)c2cccc(C#N)c2)cnc2c1c([C@H]1C[C@H](C)N(C(=O)C3CCCC3)C[C@H]1C)cn2C` (relative stereo) [Example 97, rel-3-cyano-N-(3-((2S,4S,5S)-1-(cyclopentanecarbonyl)-2,5-dimethylpiperidin-4-yl)-1,4-dimethyl-1H-pyrrolo[2,3-b]pyridin-5-yl)benzamide], inhibition was half-maximal at 124 nM (IC50).
The same measure for `COc1ccc(C(=O)Nc2cnc3c(c(C4[C@@H]5CC[C@H]4CN(C(=O)C4CCCC4)C5)cn3C)c2C)cc1C#N` (stereo partly drawn) [Example 99, 3-cyano-N-(3-((1R,5S,8r)-3-(cyclopentanecarbonyl)-3-azabicyclo[3.2.1]octan-8-yl)-1,4-dimethyl-1H-pyrrolo[2,3-b]pyridin-5-yl)-4-methoxybenzamide]: 14.7 nM; for `Cn1cc(C2CCN(C(=O)CC3CCC3)CC2)c2c(C(F)(F)F)c(NC(=O)c3cccc(C#N)c3)cnc21` [Example 18, 3-cyano-N-(3-(1-(2-cyclobutylacetyl)piperidin-4-yl)-1-methyl-4-(trifluoromethyl)-1H-pyrrolo[2,3-b]pyridin-5-yl)benzamide]: 10.8 nM.
In the case of `Cc1c(NC(=O)c2ccc(F)c(C#N)c2)cnc2c1c([C@@H]1CCN(C(=O)C3CCCC3)C(C)(C)C1)cn2C` [Example 61, (R)-3-cyano-N-(3-(1-(cyclopentanecarbonyl)-2,2-dimethylpiperidin-4-yl)-1,4-dimethyl-1H-pyrrolo[2,3-b]pyridin-5-yl)-4-fluorobenzamide] it was 25.6 nM; in that of `Cc1c(NC(=O)c2cccc(C#N)c2)cnc2c1c([C@@H]1CCN(C(=O)CC3CCCC3)C(C)(C)C1)cn2C` [Example 74, (R)-3-cyano-N-(3-(1-(2-cyclopentylacetyl)-2,2-dimethylpiperidin-4-yl)-1,4-dimethyl-1H-pyrrolo[2,3-b]pyridin-5-yl)benzamide], 3.6 nM.
The same measure for `C[C@@H](C(=O)N1CCC(c2cn(C)c3ncc(NC(=O)c4cc(O)cc(C#N)c4)c(C(F)(F)F)c23)CC1)C(C)(C)C` [Example 54, (R)-3-cyano-5-hydroxy-N-(1-methyl-4-(trifluoromethyl)-3-(1-(2,3,3-trimethylbutanoyl)piperidin-4-yl)-1H-pyrrolo [2,3-b]pyridin-5-yl)benzamide]: 5 nM.
For `Cc1c(NC(=O)c2cccc(C#N)c2)cnc2c1c(C1CCN(C(=O)[C@@H]3CCCC3C(C)C)CC1)cn2C` (stereo in doubt) [Example 49, 3-cyano-N-(3-(1-((1R,2R)-2-isopropylcyclopentane-1-carbonyl)piperidin-4-yl)-1,4-dimethyl-1H-pyrrolo[2,3-b]pyridin-5-yl)benzamide], the IC50 was found to be 8 nM. Compared with the last compound, the IC50 is about 1.6-fold higher.
In the case of `Cc1c(NC(=O)c2cccc(C#N)c2)cnc2c1c(C1CCN(C(=O)[C@H](C)C34CC(C3)C4)CC1)cn2C` [Example 50, (R)—N-(3-(1-(2-(bicyclo[1.1.1]pentan-1-yl)propanoyl)piperidin-4-yl)-1,4-dimethyl-1H-pyrrolo[2,3-b]pyridin-5-yl)-3-cyanobenzamide] it was 3.4 nM.
In the case of `Cn1cc(C2CCN(C(=O)[C@H]3C[C@H]4CCCC[C@H]4C3)CC2)c2c(C(F)(F)F)c(NC(=O)c3cccc(C#N)c3)cnc21` [Example 16, 3-cyano-N-(1-methyl-3-(1-((2r,3aR,7aS)-octahydro-1H-indene-2-carbonyl)piperidin-4-yl)-4-(trifluoromethyl)-1H-pyrrolo[2,3-b]pyridin-5-yl)benzamide] it was 10.7 nM; in that of `Cc1c(NC(=O)c2cccc(C#N)c2)cnc2c1c(C1CCN(C(=O)CC(C)C)CC1)cn2C` [Example 109, 3-cyano-N-(1,4-dimethyl-3-(1-(3-methylbutanoyl)piperidin-4-yl)-1H-pyrrolo[2,3-b]pyridin-5-yl)benzamide], 32.1 nM; in that of `Cc1cccc(F)c1C(=O)N1CCC(c2cn(C)c3ncc(NC(=O)c4cccc(C#N)c4)c(C)c23)CC1` [Example 33, 3-cyano-N-(3-(1-(2-fluoro-6-methylbenzoyl)piperidin-4-yl)-1,4-dimethyl-1H-pyrrolo[2,3-b]pyridin-5-yl)benzamide], 13.7 nM.
The same measure for `CC(C)C(=O)N1CCC(c2cn(C)c3ncc(NC(=O)c4ccc(F)c(Cl)c4)c(C(F)(F)F)c23)CC1` [Example 12, 3-chloro-4-fluoro-N-(3-(1-isobutyrylpiperidin-4-yl)-1-methyl-4-(trifluoromethyl)-1H-pyrrolo[2,3-b]pyridin-5-yl)benzamide]: 57.9 nM.
